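Compound exposure: 48 hours, 5 concentrations, 96-well plates. At the GI50, growth is halved.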 The source made the active and inactive calls. Cut-off read from the data, not from the text of the source: active = GI50 up to about 1.1 µM and inactive = higher.
Experiments:
Test in all cases: inhibition of tumour cell growth, NCI panel, 48 h
[1] = system: SNB-78
[2] = system: A498
[3] = system: RXF 631
[4] = system: HOP-18
[5] = system: MOLT-4
[6] = system: CCRF-CEM
[7] = system: DMS-114
[8] = system: SNB-19
[9] = system: SK-MEL-28
[10] = system: OVCAR-5
[11] = system: SN12C
[12] = system: HCC 2998
[13] = system: K562
[14] = system: SW-620
[15] = system: HOP-92
[16] = system: HOP-62
[17] = system: Malme-3M
[18] = system: NCI-H23
[19] = system: SK-OV-3
[20] = system: SR
[21] = system: COLO 205
[22] = system: 786-0
[23] = system: ACHN
[24] = system: LXFL 529
[25] = system: SF-295
[26] = system: IGROV-1
[27] = system: U-251
[28] = system: HCT-15
[29] = system: LOX IMVI
[30] = system: UACC-257
[31] = system: SK-MEL-2
[32] = system: KM-20L2
[33] = system: XF498
[34] = system: UO-31
[35] = system: SF-268
[36] = system: OVCAR-8
[37] = system: KM12
[38] = system: A549
[39] = system: M14
[40] = system: UACC-62
[41] = system: NCI-H460
[42] = system: HL-60
[43] = system: SF-539
[44] = system: TK-10
[45] = system: HT-29
[46] = system: M19-MEL
[47] = system: HCT-116
[48] = system: CAKI-1
[49] = system: EKVX
[50] = system: DLD-1
[51] = system: OVCAR-4
[52] = system: SNB-75
[53] = system: RPMI-8226
[54] = system: NCI-H226
[55] = system: DMS-273
[56] = system: OVCAR-3
[57] = system: SK-MEL-5

**Q.** What does the source list for `CCOC(=O)Nc1ccc(S(=O)(=O)I)cc1.CCOC(=O)Nc1ccc(S(=O)(=O)I)cc1.CN(C=O)C1=C(N(C)C=O)C(N(C)C=O)=C(N(C)C=O)C(=O)C1=O`?
**A.** GI50 [1]: > 100 µM (inactive); GI50 [2]: > 100 µM (inactive); GI50 [3]: > 100 µM (inactive); GI50 [4]: > 100 µM (inactive); GI50 [5]: > 100 µM (inactive); GI50 [6]: > 100 µM (inactive); GI50 [7]: > 100 µM (inactive); GI50 [8]: > 100 µM (inactive); GI50 [9]: > 100 µM (inactive); GI50 [10]: > 100 µM (inactive); GI50 [11]: > 100 µM (inactive); GI50 [12]: > 100 µM (inactive); GI50 [13]: > 100 µM (inactive); GI50 [14]: > 100 µM (inactive); GI50 [15]: > 100 µM (inactive); GI50 [16]: > 100 µM (inactive); GI50 [17]: > 100 µM (inactive); GI50 [18]: > 100 µM (inactive); GI50 [19]: > 100 µM (inactive); GI50 [20]: > 100 µM (inactive); GI50 [21]: > 100 µM (inactive); GI50 [22]: > 100 µM (inactive); GI50 [23]: > 100 µM (inactive); GI50 [24]: > 100 µM (inactive); GI50 [25]: > 100 µM (inactive); GI50 [26]: > 100 µM (inactive); GI50 [27]: > 100 µM (inactive); GI50 [28]: > 100 µM; GI50 [29]: > 100 µM (inactive); GI50 [30]: > 100 µM (inactive); GI50 [31]: > 100 µM (inactive); GI50 [32]: > 100 µM (inactive); GI50 [33]: > 100 µM (inactive); GI50 [34]: > 100 µM (inactive); GI50 [35]: > 100 µM (inactive); GI50 [36]: > 100 µM (inactive); GI50 [37]: > 100 µM (inactive); GI50 [38]: > 100 µM (inactive); GI50 [39]: > 100 µM (inactive); GI50 [40]: > 100 µM (inactive); GI50 [41]: > 100 µM (inactive); GI50 [42]: > 100 µM (inactive); GI50 [43]: > 100 µM (inactive); GI50 [44]: > 100 µM (inactive); GI50 [45]: > 100 µM (inactive); GI50 [46]: > 100 µM (inactive); GI50 [47]: > 100 µM (inactive); GI50 [48]: > 100 µM (inactive)

**Q.** With `CCOC(=O)Nc1ccc(S(=O)(=O)OC)cc1.CCOC(=O)Nc1ccc(S(=O)(=O)OC)cc1.Nc1ncnc2c1ncn2C1OC(CO)C(O)C1O` (stereo not drawn) as the compound, how does the GI50 [1] read?
**A.** Its GI50 is > 100 µM (inactive).

**Q.** What about the GI50 [2] of the same compound?
**A.** The GI50 was > 100 µM (inactive).

**Q.** What about the GI50 [3] of the same compound?
**A.** Its GI50 is > 100 µM (inactive).

**Q.** And the GI50 [4]?
**A.** Its GI50 is > 100 µM (inactive).

**Q.** What about the GI50 [5] of the same compound?
**A.** The GI50 was > 100 µM (inactive).

**Q.** What about the GI50 [6] of the same compound?
**A.** Its GI50 is 20.6 µM (inactive).

**Q.** And the GI50 [7]?
**A.** The GI50 was 18 µM (inactive).

**Q.** What about the GI50 [8] of the same compound?
**A.** The GI50 was > 100 µM (inactive).

**Q.** What about the GI50 [9] of the same compound?
**A.** Its GI50 is > 100 µM (inactive).

**Q.** And the GI50 [10]?
**A.** Its GI50 is > 100 µM (inactive).

**Q.** What about the GI50 [11] of the same compound?
**A.** Its GI50 is > 100 µM (inactive).

**Q.** And the GI50 [12]?
**A.** The GI50 was > 100 µM (inactive).

**Q.** And the GI50 [13]?
**A.** Its GI50 is 23 µM (inactive).

**Q.** And the GI50 [14]?
**A.** Its GI50 is 18.2 µM (inactive).

**Q.** And the GI50 [49]?
**A.** Its GI50 is > 100 µM (inactive).

**Q.** And the GI50 [15]?
**A.** Its GI50 is > 100 µM (inactive).

**Q.** What about the GI50 [50] of the same compound?
**A.** The GI50 was 33.1 µM (inactive).

**Q.** And the GI50 [51]?
**A.** The GI50 was 35.3 µM (inactive).

**Q.** What about the GI50 [16] of the same compound?
**A.** The GI50 was > 100 µM (inactive).

**Q.** What about the GI50 [17] of the same compound?
**A.** The GI50 was > 100 µM (inactive).

**Q.** What about the GI50 [18] of the same compound?
**A.** Its GI50 is > 100 µM (inactive).

**Q.** And the GI50 [19]?
**A.** Its GI50 is > 100 µM (inactive).

**Q.** What about the GI50 [21] of the same compound?
**A.** Its GI50 is 49 µM (inactive).

**Q.** What about the GI50 [22] of the same compound?
**A.** Its GI50 is 21.5 µM (inactive).

**Q.** And the GI50 [52]?
**A.** Its GI50 is > 100 µM (inactive).

**Q.** And the GI50 [53]?
**A.** The GI50 was 21.6 µM (inactive).

**Q.** What about the GI50 [23] of the same compound?
**A.** Its GI50 is > 100 µM (inactive).

**Q.** And the GI50 [24]?
**A.** Its GI50 is > 100 µM (inactive).

**Q.** What about the GI50 [25] of the same compound?
**A.** Its GI50 is > 100 µM (inactive).

**Q.** And the GI50 [26]?
**A.** Its GI50 is > 100 µM (inactive).

**Q.** What about the GI50 [28] of the same compound?
**A.** Its GI50 is 34.2 µM.

**Q.** And the GI50 [29]?
**A.** Its GI50 is 17.8 µM (inactive).

**Q.** What about the GI50 [30] of the same compound?
**A.** The GI50 was 39.6 µM (inactive).

**Q.** And the GI50 [31]?
**A.** Its GI50 is > 100 µM (inactive).

**Q.** And the GI50 [32]?
**A.** Its GI50 is > 100 µM (inactive).

**Q.** And the GI50 [33]?
**A.** The GI50 was 92.3 µM (inactive).

**Q.** And the GI50 [54]?
**A.** The GI50 was > 100 µM (inactive).

**Q.** And the GI50 [34]?
**A.** The GI50 was > 100 µM (inactive).

**Q.** And the GI50 [35]?
**A.** The GI50 was > 100 µM (inactive).

**Q.** And the GI50 [36]?
**A.** Its GI50 is > 100 µM (inactive).

**Q.** What about the GI50 [37] of the same compound?
**A.** The GI50 was 99.8 µM (inactive).

**Q.** And the GI50 [38]?
**A.** The GI50 was 34.3 µM (inactive).

**Q.** And the GI50 [55]?
**A.** The GI50 was 30.8 µM (inactive).

**Q.** What about the GI50 [39] of the same compound?
**A.** The GI50 was > 100 µM (inactive).

**Q.** And the GI50 [40]?
**A.** Its GI50 is > 100 µM (inactive).

**Q.** And the GI50 [41]?
**A.** Its GI50 is > 100 µM (inactive).

**Q.** What about the GI50 [42] of the same compound?
**A.** The GI50 was 21.8 µM (inactive).

**Q.** What about the GI50 [43] of the same compound?
**A.** The GI50 was > 100 µM (inactive).

**Q.** And the GI50 [56]?
**A.** Its GI50 is > 100 µM (inactive).

**Q.** And the GI50 [44]?
**A.** Its GI50 is > 100 µM (inactive).

**Q.** What about the GI50 [45] of the same compound?
**A.** The GI50 was 26.3 µM (inactive).

**Q.** What about the GI50 [46] of the same compound?
**A.** The GI50 was 21.9 µM (inactive).

**Q.** What about the GI50 [47] of the same compound?
**A.** The GI50 was 17.5 µM (inactive).

**Q.** And the GI50 [57]?
**A.** Its GI50 is > 100 µM (inactive).

**Q.** What about the GI50 [48] of the same compound?
**A.** Its GI50 is > 100 µM (inactive).
